Key:
TNF-alpha = TNF-alpha Quantification Assay (ELISA), LPS-stimulated RAW 264.7; assay type: cell-based; settings: Mus musculus, RAW264.7; at 10 μM; read-out: TNFα: % inh.
Rho-A = target: T1, Rho-A (Homo sapiens, UniProt P61586); assay: Ras GTP Binding Domain Inhibition Assay (Ras Superfamily Assay); settings: read-out: Rho-A: % inh..
T1 construct: made in house
Procedure, shortened: (§1)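 His-tagged GTPases immobilised on nickel-coated plates, pre-incubated with compound (20 μM single point, or serial dilution for IC50) 3 h at room temperature, with or without 10-30 μg/mL Sos (residues 556-1049) in the final hour. Bound Cy3- or Cy5-GTP (100 nM, 45 min) measured by fluorescence after washing.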

KRas wild type = assay: as above; settings: for KRas wild type + SOS: % inh.: with SOS; for KRas wild type: % inh.: without SOS
Procedure, shortened: as §1

KRas G12C mutant = assay: as above; settings: 20 μM compound; for KRas G12C mutant + SOS: % inh.: with SOS; for KRas G12C mutant: % inh.: without SOS
Procedure, shortened: as §1

KRas G12D mutant = assay: as above; settings: for KRas G12D mutant + SOS: % inh.: with SOS; for KRas G12D mutant: % inh.: without SOS
Procedure, shortened: as §1

Rac-1 = target: T2, Rac-1 (Homo sapiens, UniProt P63000); assay: as above; settings: read-out: Rac-1: % inh.
T2 construct: made in house
Procedure, shortened: as §1

KRas Q61H mutant = assay: as above; settings: 20 μM compound; for KRas Q61H mutant + SOS: % inh.: with SOS; for KRas Q61H mutant: % inh.: without SOS
Procedure, shortened: as §1

Erk1/2 phosphorylation = assay: Erk1/2 Phosphorylation Assay (western blot), Panc-1; assay type: cell-based, human; settings: at 10 μM, * = activation
Procedure, shortened: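 KRas G12D Panc-1 cells were treated 6 h at 37° C with compound at 10 μM or serial dilutions for IC50 (0.3% DMSO). In method 1, cells were serum-starved overnight (0.5% FBS) and then given 1.5 ng/ml EGF for 15 min. In method 2, cells stayed in 10% FBS without stimulation. Lysate phospho-Erk1/2 (Thr202/Tyr204) was read by western blot.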

T1 sequence (P61586 whole entry, the tested form may be a part): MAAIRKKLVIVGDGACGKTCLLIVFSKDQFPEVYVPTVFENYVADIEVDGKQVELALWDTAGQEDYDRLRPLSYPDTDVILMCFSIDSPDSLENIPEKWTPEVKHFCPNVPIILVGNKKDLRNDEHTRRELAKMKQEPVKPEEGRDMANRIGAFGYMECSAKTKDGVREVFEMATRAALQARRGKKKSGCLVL

Row | Structure (SMILES) | inhibition at 20 µM (Rho-A) | KRas wild type + SOS: % inh. (KRas wild type; 20 μM compound) | KRas wild type: % inh. (KRas wild type; 20 μM compound) | KRas G12C mutant + SOS: % inh. (KRas G12C mutant) | KRas G12C mutant: % inh. (KRas G12C mutant) | KRas G12D mutant + SOS: % inh. (KRas G12D mutant; 20 μM compound) | KRas G12D mutant: % inh. (KRas G12D mutant; 20 μM compound) | inhibition at 20 µM (Rac-1) | KRas Q61H mutant + SOS: % inh. (KRas Q61H mutant) | KRas Q61H mutant: % inh. (KRas Q61H mutant) | KRas wild type + SOS: % inh. (KRas wild type; at 20 μM) | KRas wild type: % inh. (KRas wild type; at 20 μM) | KRas G12D mutant + SOS: % inh. (KRas G12D mutant; at 20 μM) | KRas G12D mutant: % inh. (KRas G12D mutant; at 20 μM) | inhibition at 10 µM (TNF-alpha) | % inh of Erk1/2 phosphorylation in Panc-1 (Erk1/2 phosphorylation)
1 | COCC1CCN(c2nc(-c3ccccn3)nn3cc(-c4ccn(C(C)C)n4)c(-c4ccccc4)c23)C1 (racemic) [Compound 25, rac 6-(1-Isopropyl-1H-pyrazol-3-yl)-4-(3-(methoxymethyl)pyrrolidin-1-yl)-5-phenyl-2-(pyridin-2-yl)pyrrolo[2,1-f][1,2,4]triazine] | 1 to 25% | A (A = 1-25% inhibition) | A (A = 1-25% inhibition) | A (A = 1-25% inhibition) | A (A = 1-25% inhibition) | A (A = 1-25% inhibition) | A (A = 1-25% inhibition) | 1 to 25% | A (A = 1-25% inhibition) | A (A = 1-25% inhibition) | – | – | – | – | 1 to 24% | 0 (0% inhibition)
2 | COC[C@@H]1CC[C@@H]1CNc1nc(-c2ccccn2)nn2cc(-c3ccn(C(C)C)n3)c(-c3ccccc3)c12 (racemic) [Compound 26, rac 6-(1-Isopropyl-1H-pyrazol-3-yl)-N-(((1S,2R)-2-(methoxymethyl)cyclobutyl)methyl)-5-phenyl-2-(pyridin-2-yl)pyrrolo[2,1-f][1,2,4]triazin-4-amine] | 1 to 25% | 0 (0 = 0% inhibition) | A (A = 1-25% inhibition) | A (A = 1-25% inhibition) | 0 (0 = 0% inhibition) | A (A = 1-25% inhibition) | 0 (0 = 0% inhibition) | 0% | A (A = 1-25% inhibition) | A (A = 1-25% inhibition) | – | – | – | – | 1 to 24% | D (85-100% inhibition)
3 | COc1cc(Nc2nc(-c3nccn3C)nn3cc(-c4ccn(C(C)C)n4)c(C)c23)n[nH]1 [Compound 51, 6-(1-Isopropyl-1H-pyrazol-3-yl)-N-(5-methoxy-1H-pyrazol-3-yl)-5-methyl-2-(1-methyl-1H-imidazol-2-yl)pyrrolo[2,1-f][1,2,4]triazin-4-amine] | 76 to 100% | C (C = 50-75% inhibition) | D (D = 76-100% inhibition) | C (C = 50-75% inhibition) | C (C = 50-75% inhibition) | C (C = 50-75% inhibition) | D (D = 76-100% inhibition) | 76 to 100% | – | – | – | – | – | – | 25 to 49% | 0 (0% inhibition)
4 | Cc1c(-c2ccn(C(C)C)n2)cn2nc(-c3nccn3C)nc(Nc3ccncc3)c12 [Compound 52, 6-(1-Isopropyl-1H-pyrazol-3-yl)-5-methyl-2-(1-methyl-1H-imidazol-2-yl)-N-(pyridin-4-yl)pyrrolo[2,1-f][1,2,4]triazin-4-amine] | 0% | A (A = 1-25% inhibition) | 0 (0 = 0% inhibition) | A (A = 1-25% inhibition) | 0 (0 = 0% inhibition) | A (A = 1-25% inhibition) | A (A = 1-25% inhibition) | 0% | – | – | – | – | – | – | 1 to 24% | 0 (0% inhibition)
5 | COc1ccc(Nc2nc(-c3nccn3C)nn3cc(-c4ccn(C(C)C)n4)c(C)c23)nn1 [Compound 74, 6-(1-Isopropyl-1H-pyrazol-3-yl)-N-(6-methoxypyridazin-3-yl)-5-methyl-2-(1-methyl-1H-imidazol-2-yl)pyrrolo[2,1-f][1,2,4]triazin-4-amine] | 26 to 49% | – | – | – | – | – | – | 1 to 25% | – | – | – | – | – | – | 1 to 24% | D* (85-100% activation)
6 | Cc1c(-c2ccn(C)n2)cn2nc(-c3nccn3C)nc(Nc3cc(C(C)C)[nH]n3)c12 [Compound 268, N-(5-Isopropyl-1H-pyrazol-3-yl)-5-methyl-2-(1-methyl-1H-imidazol-2-yl)-6-(1-methyl-1H-pyrazol-3-yl)pyrrolo[2,1-f][1,2,4]triazin-4-amine] | – | – | – | – | – | – | – | 76 to 100% | – | – | D (D = 76-100% inhibition) | C (C = 50-75% inhibition) | D (D = 76-100% inhibition) | C (C = 50-75% inhibition) | 25 to 49% | D* (85-100% activation)

Second part, led by results:

Row | inhibition at 20 µM (Rho-A) | KRas wild type + SOS: % inh. (KRas wild type; 20 μM compound) | KRas wild type: % inh. (KRas wild type; 20 μM compound) | KRas G12C mutant + SOS: % inh. (KRas G12C mutant) | KRas G12C mutant: % inh. (KRas G12C mutant) | KRas G12D mutant + SOS: % inh. (KRas G12D mutant; 20 μM compound) | KRas G12D mutant: % inh. (KRas G12D mutant; 20 μM compound) | inhibition at 20 µM (Rac-1) | KRas Q61H mutant + SOS: % inh. (KRas Q61H mutant) | KRas Q61H mutant: % inh. (KRas Q61H mutant) | KRas wild type + SOS: % inh. (KRas wild type; at 20 μM) | KRas wild type: % inh. (KRas wild type; at 20 μM) | KRas G12D mutant + SOS: % inh. (KRas G12D mutant; at 20 μM) | KRas G12D mutant: % inh. (KRas G12D mutant; at 20 μM) | Structure (SMILES) | inhibition at 10 µM (TNF-alpha) | % inh of Erk1/2 phosphorylation in Panc-1 (Erk1/2 phosphorylation)
7 | 0% | 0 (0 = 0% inhibition) | 0 (0 = 0% inhibition) | 0 (0 = 0% inhibition) | 0 (0 = 0% inhibition) | 0 (0 = 0% inhibition) | 0 (0 = 0% inhibition) | 0% | 0 (0 = 0% inhibition) | 0 (0 = 0% inhibition) | – | – | – | – | CO[C@H]1CC[C@@H](Nc2nc(-c3ccccn3)nn3cc(-c4ccn(C(C)C)n4)c(-c4ccccc4)c23)C1 (racemic) [Compound 24, rac 6-(1-Isopropyl-1H-pyrazol-3-yl)-N-((1R,3S)-3-methoxycyclopentyl)-5-phenyl-2-(pyridin-2-yl)pyrrolo[2,1-f][1,2,4]triazin-4-amine] | 25 to 49% | 0 (0% inhibition)
8 | – | – | – | – | – | – | – | 26 to 49% | – | – | A (A = 1-25% inhibition) | C (C = 50-75% inhibition) | B (B = 26-49% inhibition) | B (B = 26-49% inhibition) | COc1cccc(-c2cn3nc(-c4nccn4C)nc(N[C@H]4C[C@@H](OC)C4)c3c2-c2ccccc2)c1C [Compound 269, 6-(3-Methoxy-2-methylphenyl)-N-((1s,3s)-3-methoxycyclobutyl)-2-(1-methyl-1H-imidazol-2-yl)-5-phenylpyrrolo[2,1-f][1,2,4]triazin-4-amine] | 75 to 100% | D (85-100% inhibition)
9 | – | – | – | – | – | – | – | 1 to 25% | – | – | A (A = 1-25% inhibition) | 0 (0 = 0% inhibition) | A (A = 1-25% inhibition) | B (B = 26-49% inhibition) | COc1ccc(F)c(-c2cn3nc(-c4nccn4C)nc(N[C@H]4C[C@H](OC)C4)c3c2-c2ccccc2)c1F [Compound 273, 6-(2,6-Difluoro-3-methoxyphenyl)-N-((1r,3r)-3-methoxycyclobutyl)-2-(1-methyl-1H-imidazol-2-yl)-5-phenylpyrrolo[2,1-f][1,2,4]triazin-4-amine] | 75 to 100% | D (85-100% inhibition)
10 | – | – | – | – | – | – | – | 0% | – | – | 0 (0 = 0% inhibition) | 0 (0 = 0% inhibition) | A (A = 1-25% inhibition) | B (B = 26-49% inhibition) | COc1cccc(-c2cn3nc(-c4nccn4C)nc(N[C@H]4C[C@H](OC)C4)c3c2-c2ccccn2)c1C [Compound 274, 6-(3-Methoxy-2-methylphenyl)-N-((1r,3r)-3-methoxycyclobutyl)-2-(1-methyl-1H-imidazol-2-yl)-5-(pyridin-2-yl)pyrrolo[2,1-f][1,2,4]triazin-4-amine] | 75 to 100% | D (85-100% inhibition)
11 | – | – | – | – | – | – | – | 1 to 25% | – | – | 0 (0 = 0% inhibition) | A (A = 1-25% inhibition) | A (A = 1-25% inhibition) | A (A = 1-25% inhibition) | CO[C@H]1C[C@H](Nc2nc(-c3nccn3C)nn3cc(-c4ccn(C)n4)c(C4CC4)c23)C1 [Compound 275, 5-Cyclopropyl-N-((1r,3r)-3-methoxycyclobutyl)-2-(1-methyl-1H-imidazol-2-yl)-6-(1-methyl-1H-pyrazol-3-yl)pyrrolo[2,1-f][1,2,4]triazin-4-amine] | 0% | 0 (0% inhibition)
12 | – | – | – | – | – | – | – | 76 to 100% | – | – | D (D = 76-100% inhibition) | D (D = 76-100% inhibition) | D (D = 76-100% inhibition) | D (D = 76-100% inhibition) | COc1ccnc(Nc2nc(-c3nccn3C)nn3cc(-c4ccn(C)n4)c(C4CC4)c23)c1 [Compound 276, 5-Cyclopropyl-N-(4-methoxypyridin-2-yl)-2-(1-methyl-1H-imidazol-2-yl)-6-(1-methyl-1H-pyrazol-3-yl)pyrrolo[2,1-f][1,2,4]triazin-4-amine] | 0% | D* (85-100% activation)
